From patent publication US7163952B2, “Azole compound and medicinal use thereof” (Japan Tobacco Inc., priority 2001, dated 2007)

Question: Which melting point does the source give for `CC(C)N(Cc1ccc(C(=O)O)cc1)c1nc(-c2ccc(NC(=O)c3ccc(N4CCCCC4)cc3)cc2)cs1` [Example 62, 4-((N-isopropyl-N-(4-(4-(4-piperidinobenzoylamino)phenyl)-2-thiazolyl)amino)methyl)benzoic acid] here?
Answer: The melting point was 234 °C (dec.).

Question: With `CC(C)N(Cc1ccc(C(=O)O)cc1)c1nc(-c2ccc(NC(=O)c3ccc(N4CCOCC4)cc3)cc2)cs1` [Example 63, 4-((N-isopropyl-N-(4-(4-(4-morpholinobenzoylamino)phenyl)-2-thiazolyl)amino)methyl)benzoic acid] as the compound, how does the melting point read?
Answer: The melting point was 250 °C (dec.).

Question: For `CC(C)N(Cc1ccc(C(=O)O)cc1)c1nc(-c2ccc(NC(=O)c3ccc(-c4ccccc4)cc3)cc2)cs1` [Example 64, 4-((N-(4-(4-(4-biphenylcarbonylamino)phenyl)-2-thiazolyl)-N-isopropylamino)methyl)benzoic acid], which melting point is on record?
Answer: Its melting point is 250 °C (dec.).

Question: Which melting point does the source give for `CC(C)N(Cc1ccc(C(=O)O)cc1)c1nc(-c2ccc(OCc3ccc(C4CCCCC4)cc3)cc2)cs1` [Example 65, 4-((N-(4-(4-(4-cyclohexylbenzyloxy)phenyl)-2-thiazolyl)-N-isopropylamino)methyl)benzoic acid] here?
Answer: Its melting point is 233 to 234 °C.

Question: Which melting point does the source give for `O=C(O)c1ccc(Cc2nc(-c3ccc(NC(=O)c4ccc(C5CCCCC5)cc4)cc3)cs2)cc1` [Example 68, 4-(4-(4-(4-cyclohexylbenzoylamino)phenyl)-2-thiazolylmethyl)benzoic acid] here?
Answer: Its melting point is 230 °C (dec.).

Question: For `CC(C)Oc1ccc(C(=O)Nc2ccc(-c3csc(Cc4ccc(C(=O)O)cc4)n3)cc2)cc1` [Example 69, 4-(4-(4-(4-isopropoxybenzoylamino)phenyl)-2-thiazolylmethyl)benzoic acid], which melting point is on record?
Answer: Its melting point is 230 °C (dec.).

Question: With `O=C(O)c1ccc(Cc2nc(-c3ccc(NC(=O)c4ccc(-n5cccc5)cc4)cc3)cs2)cc1` [Example 70, 4-(4-(4-(4-(1-pyrrolyl)benzoylamino)phenyl)-2-thiazolylmethyl)benzoic acid] as the compound, how does the melting point read?
Answer: Its melting point is 220 °C (dec.).

Question: Which melting point does the source give for `O=C(O)c1ccc(C(=O)c2nc(-c3ccc(OCc4ccc(C5CCCCC5)cc4)cc3)cs2)cc1` [Example 71, 4-(4-(4-(4-cyclohexylbenzyloxy)phenyl)-2-thiazolecarbonyl)benzoic acid] here?
Answer: Its melting point is 259 to 261 °C.

Question: Which melting point does the source give for `O=C(O)c1ccc(Nc2nc(-c3ccc(OCc4ccc(C5CCCCC5)cc4)cc3)cs2)c(OCCC2CCCCC2)c1` [Example 72, 4-(4-(4-(4-cyclohexylbenzyloxy)phenyl)-2-thiazolylamino)-3-(2-cyclohexylethoxy)benzoic acid] here?
Answer: The melting point was 230 °C (dec.).

Question: Which melting point does the source give for `O=C(O)c1ccc(Nc2nc(-c3ccc(OCc4ccc(C5CCCCC5)cc4)cc3)cs2)c(OCc2ccccc2)c1` [Example 73, 3-benzyloxy-4-(4-(4-(4-cyclohexylbenzyloxy)phenyl)-2-thiazolylamino)benzoic acid] here?
Answer: The melting point was 230 °C (dec.).

Question: With `O=C(O)c1ccc(COc2cc(C(=O)O)ccc2Nc2nc(-c3ccc(OCc4ccc(C5CCCCC5)cc4)cc3)cs2)cc1` [Example 74, 3-(4-carboxybenzyloxy)-4-(4-(4-(4-cyclohexylbenzyloxy)phenyl)-2-thiazolylamino)benzoic acid] as the compound, how does the melting point read?
Answer: The melting point was 230 °C (dec.).

Question: For `CC(C)N(Cc1ccc(C(=O)O)cc1)c1nc(-c2ccc(OCc3ccc(Cl)c(Cl)c3)cc2)cs1` [Example 77, 4-((N-(4-(4-(3,4-dichlorobenzyloxy)phenyl)-2-thiazolyl)-N-isopropylamino)methyl)benzoic acid], which melting point is on record?
Answer: Its melting point is 180 to 181 °C.

Question: Which melting point does the source give for `CC(C)N(c1ccc(-c2nnn[nH]2)cc1)c1nc(-c2ccc(OCc3ccc(C4CCCCC4)cc3)cc2)cs1` [Example 78, N-(4-(4-(4-cyclohexylbenzyloxy)phenyl)-2-thiazolyl)-N-isopropyl-(4-(1H-tetrazol-5-yl)phenyl)amine] here?
Answer: The melting point was 215 to 216 °C.

Question: With `CC(C)N(Cc1ccc(-c2nnn[nH]2)cc1)c1nc(-c2ccc(OCc3ccc(C4CCCCC4)cc3)cc2)cs1` [Example 79, N-(4-(4-(4-cyclohexylbenzyloxy)phenyl)-2-thiazolyl)-N-isopropyl-(4-(1H-tetrazol-5-yl)benzyl)amine] as the compound, how does the melting point read?
Answer: Its melting point is 238 to 239 °C.
